These results are taken from patent US20150051246A1 (priority 2013, published 2015).

Data set [1] relates to xylazine/ketamine induced α2-adrenergic receptor-mediated anesthesia. Conditions: in vivo, 3 mg/kg. An excerpt: Since emesis is a typical side-effect of PDE4 inhibitors the emetic potential of roflumilast and rolipram was investigated in parallel using the xylazine/ketamine induced α2-adrenergic receptor-mediated anesthesia test. The results confirmed that the two phosphodiesterase 4 inhibitors have different effects on emesis.

Data set [2] relates to healthy adults. The experiment in a line: Verbal Learning Task (VLT) in healthy adults, 18 to 35 years. The format is in vivo, human. The source says: The study utilized Verbal Learning Task (VLT) to analyze the increased number of words remembered following roflumilast administration. The VLT consisted of displaying 30 monosyllable words on a computer screen for a period of 60 seconds. Immediately after the presentation of the words on the computer screen subjects were asked to report as many words as they could recall by memory. This process (presentation and recall) was repeated further two times (VLT, immediate recall, 3 trials). In addition, 45 min and 24 h after the last presentation, subjects were again asked to report as many words as they could recall by memory (VLT, delayed recall 45 min and 24 h). The set of three recall trials was conducted 60 minutes following administration of the roflumilast therapy
Statistical Data Analyses Human data was analyzed using IBM SPSS Statistics version 20. General Linear Models for repeated measures were applied with the placebo condition included as contrast. Statistical outcomes for Tests of Within-Subjects Effects and Tests of Within-Subjects Contrasts were regarded for immediate and delayed free recall scores and for the summed immediate recall score (i.e. immediate 1+immediate 2+immediate 3). The factor Treatment (4 levels; placebo, roflumilast 100 mcg, roflumilast 300 mcg and roflumilast 1000 mcg) was included as a within subjects factor. For the analysis of the EEG data, the factor Channel (5 levels; Fz, FCz, Cz, CPz, and Pz) was included as a second within subjects factor. Peak and latency values of three memory related ERP's were analysed; i.e. P300, N400 and P600. In case of significant findings (p<0.05) post-hoc t-tests were performed to reveal which of the five midline electrodes contributed to the effect

Data set [3] concerns 60 to 80 years old subjects (Impaired Elderly and Healthy Elderly). The experiment in a line: Verbal Learning Task (VLT) in 60 to 80 years old subjects, interim analysis. The data set is classed as in vivo, human. As to the method:
The study is conducted according to a double-blind, placebo-controlled, four-period cross-over design. Forty healthy subjects, both male and female within an age range of 60 to 80 years are planned to be included in the study in two groups: 1) 20 subjects with a memory performance between 1-2 Standard Deviation below the average for their age, gender, and educated level (Impaired Elderly) and 2) 20 subjects with age (±3 years), gender, and educational level matched (in order to speed up the study matching was stopped after the interim analysis) with an average memory performance between 0.5 Standard Deviation below and 0.5 Standard Deviation above from normative values (Healthy Elderly). Classification in terms of impaired or healthy elderly will be determined by a one-off testing of memory performance using the Rey Verbal Learning Task (Rey A; L'examen psychologique dans les cas d'encephalopathy traumatique 1958 Paris; Presses Universitaire de France; or Van der Elst et al; J Int Neuropsychol Soc 2005, 11 (3), pp 290-302) according to fully standardized procedures as applied in The Maastricht Aging Study (Jolles et al; Maastricht Aging Study; determinants of cognitive aging; Maastricht, The Netherlands, Neuropsych Publishers 1995). Normative data for each individual subject will be derived also from the Maastricht Aging Study using the regression formula as described by Van der Elst et al (Van der Elst et al; J Int Neuropsychol Soc 2005, 11 (3), pp 290-302).
All subjects within their corresponding groups (either Healthy Elderly n=20 or Impaired Elderly n=20) will be randomized in a double blind fashion to 1 of 4 treatment sequences, each sequence consisting of the following periods: A) Placebo+placebo; B) Roflumilast 100 mcg+placebo; C) Roflumilast […]+placebo and D) Roflumilast 1000 mcg (500+500 mcg) according to a computer-generated allocation schedule in a cross-over design. Between each of the four treatment sequences there will be a 12 days washout period.
Verbal learning task (VLT) The Rey VLT as modified by Riedel and colleagues (Riedel, Klaasen et al, Psychopharmacology (Berlin) 1999 Vol 141(4) pp 362-369) is used. This modified VLT maximizes the possibility of measuring enhancement rather than only impairment, by means of prolonging the list. The test consists of a list of 30 monosyllabic words (18 nouns and 12 adjectives). The words are shown on a computer screen for 1 second. Three trials with the same item sequence are presented. Each trial ends with a free recall of the words (immediate recall). Forty-five minutes after the first exposure, the subject is asked to recall as many words as possible (delayed recall). […] The words are shown on a computer screen for 2 seconds and subjects are asked to rate whether they were presented in the learning trial by a “yes/no” response. The inter-word interval is 2 seconds. 24 Hours after the immediate recall, subjects will return to the lab for a second delayed recall and recognition. […] EEG will be recorded during the immediate recall and the first recognition test on the test day. […]
An interim analysis has been performed based on the data of 9 subjects of the Impaired Elderly group and 4 subjects of the Healthy Elderly group. For this purpose, cognitive battery test scores (VLT, SMT, Stroop task and BL-VAS) and concentrations of roflumilast and roflumilast-N-oxide in plasma have been analysed and summarized by dose over each scheduled sampling time using descriptive statistics. […]

Data set [4] concerns 60 to 80 years old subjects. Put plainly: Bond-Lader Visual Analogue Scales (BL-VAS) in elderly subjects. The data set is classed as in vivo, human. The conditions noted are these: 45 min after the low dose. The source says: Bond-Lader Visual Analogue Scales (BL-VAS): The BL-VAS (Bond A and Lader M, 1974; Br J Med Psycho) Vol 47, pp. 211-218) will be used in order to assess alertness, calmness, and contentedness. BL-VAS consists of 16 100 mm visual analogue scales anchored by antonyms (e.g. Alert-Drowsy, Lethargic-Energetic; etc) and be applied on testing Day 1 and 2 of each treatment period.
An interim analysis has been performed based on the data of 9 subjects of the Impaired Elderly group and 4 subjects of the Healthy Elderly group. For this purpose, cognitive battery test scores (VLT, SMT, Stroop task and BL-VAS) and concentrations of roflumilast and roflumilast-N-oxide in plasma have been analysed and summarized by dose over each scheduled sampling time using descriptive statistics.

For `O=C(Nc1c(Cl)cncc1Cl)c1ccc(OC(F)F)c(OCC2CC2)c1` [roflumilast, N-(3,5-dichloropyridin-4-yl)-3-cyclopropylmethoxy-4-difluoromethoxybenzamide], the emetic potential result in data set [1] is recorded as “tendency towards emetic potential”. Besides, the “number of correct words recalled after 3rd trial (in words)” value in data set [2] (100 mcg) is recorded as “significant increase in the number of correct words recalled”. Besides, the placebo-corrected fold-improvement in data set [2] (100 mcg, 3rd trial, healthy volunteer study) was 1.12; in data set [3] (100 mcg, 3rd trial, interim data elderly study), 1.16. In addition, the “number of words on the 3rd trial” value turned out to be 23.7 words in data set [2] (100 mcg, young volunteers) and 10.28 words in data set [3] (100 mcg, elderly subjects). For the same compound, the “number of correct words recalled (in words)” value in data set [2] (300 mcg and 1000 mcg, FIG. 2) is recorded as “some effect”. Further, the “improvement in number of correct words recalled, average” value in data set [2] (single oral dose 100 mcg, after the third trial) turned out to be 2.5 words. Besides, the figures for the “increase in number of correct words, 45 min delayed recall, compared to placebo” value in data set [3] (100 mcg) and in data set [3] (1000 mcg) were 1.7 words and 1.6 words, respectively. The “increase in number of correct words immediately recalled, compared to placebo” value in data set [3] (100 mcg, after 3rd trial) came to 1.5 words. The “(subjective) alertness in comparison with placebo, BL-VAS scores” value in data set [4] is recorded as “significantly higher (subjective) alertness”.
